{
  "source": "patent US8309766B2",
  "about": "(Obschestvo S. Organichennoi Otvetstvennostiyu …, priority 2005, dated 2012)",
  "key": {"[1]": {"test_system": "carrageenan edema of rat paw", "experiment": "Carrageenan edema of rat paw", "type": "in vivo, outbreed white rats", "conditions": "rats; 1% ointment; 4 hours post carrageenan", "experimental": "The tests were conducted on males of outbreed white rats weighing 250-270 grams. The model of carrageenan edema was used which model is described in Winter et al. In: DeRosa M., Giroud J. P. Willoughby D. A. Studies of the mediators of acute inflammatory response induced in rats in different sites by carrageenan and turpentine.//J. Pharmacol. 1971. V. 104. P. 15-29.\n0.1 ml 1% carrageenan solution (SERVA) was subplantarly injected into a right paw of rats. The animals were placed into individual chambers. […] Paw volume was measured using a pletismometer (Ugo Besile) at 4 hours post carrageenan administration. Therapeutic effect of the ointment was assessed by the inhibition degree of inflammatory reaction as compared to an intact left paw of the given animal and to a paw reaction of a control (untreated) group of rats. Inhibition of inflammatory reaction expressed in percent was calculated according to the formula: […]"}, "gastric mucosa of rats": {"test_system": "gastric mucosa of rats", "experiment": "Ulcerogenic effect on gastric mucosa", "type": "in vivo, outbreed rats", "conditions": "30 mg/kg once intragastrally, at 24 hours, M ± m", "experimental": "The tests were carried out on females of outbreed rats weighing 300-320 grams. The compounds tested were administered once intragastrally at a dose 30 mg/kg to rats deprived of feed for 24 hours prior to the test. Animals in the control group were administered distilled water in the same volume. At 24 hours the animals were sacrificed and stomachs were extracted. An empty stomach was filled with 2% formalin solution and it was placed into a beaker with formalin. 30 minutes later, the stomach was opened along the great curvature, expanded on a slide, fixed and washed with distilled water. Using the magnifying glass MBS-9 (8-fold magnification) length and width of gastric mucosa defects was measured and area in mm^2 was calculated (1 division of the magnifying glass ruler=0.1 mm). Ulcerogenic effect of a substance was assessed by ulcerous lesion area of gastric mucosa according to the technique presented in Rukovodstvo po experimental'nomu (doklinicheskomu) izucheniju novykh pharmacologicheskikh veshchestv (the Guide on Experimental (pre-clinical) Study of Novel Pharmacological Substances)./Moscow. “Remedium” publishers. 2000, 398 pages."}, "rat uterine horn's SMP": {"test_system": "rat uterine horn's SMP", "experiment": "Serotonin-induced contracture of rat uterine horn smooth muscle preparation", "design": "species or system Wistar rats", "conditions": "for Inhibition of contractions of the rat uterine horn's SMP, % / Rate of contractions of the rat uterine horn's SMP during 5 minutes: serotonin 10^−5 M; for Rate of contractions of the rat uterine horn's SMP during 5 minutes: control 9", "experimental": "The model of serotonin-induced soft muscular contracture of an uterine horn [Blattner H. G., Dehnert H. et al. Experiments on isolated smooth muscle preparation. Ed. J. M. Barnden and R. Colson, 1980] was created on females of Wistar rats weighing 300-350 grams. A prepared smooth muscle preparation (SMP) was placed into a thermo-regulated chamber (+37° C.) containing Tirode solution with lowered calcium content in order to prevent spontaneous contractive activity of the smooth muscle preparation. Contraction of the uterine horn was recorded using the mechanotron 6M×2B connected to the polygraph KPS-4; initial load to the object was 0.5-0.7 grams.\nContracture of the SMP was induced by introduction into incubation medium of 0.1 ml serotonin (Sigma) at concentration 10^−5 M. 30-60 seconds post administration of the mediator, a peak contraction amplitude of the uterine horn was recorded. Compound IX was introduced into the chamber at the peak amplitude of contractions or under conditions of incubation (within the same range of concentrations) for 15 minutes.\nThe effect of compound IX being tested was assessed by a number of contractions and by lowering the amplitude value."}, "[2]": {"conditions": "added at the peak serotonin-induced contracture"}},
  "data": [
    {"smiles": "O=C(CCc1ccc(O)cc1)NCCc1ccccc1", "note": "[Compound IX, 3-(p-hydroxyphenyl)-propionylphenylethylamine]", "values": [
      {"measurement": "Edema inhibition (%)", "setting": "[1]", "result": 53.1, "unit": "%"},
      {"measurement": "Paw volume gain (%)", "setting": "[1]", "result": 32.9, "unit": "%"},
      {"measurement": "Area of ulcerous lesion", "setting": "gastric mucosa of rats", "result": 0, "unit": "mm^2"},
      {"measurement": "Inhibition of contractions of the rat uterine horn's SMP, %", "setting": "rat uterine horn's SMP; [2]", "result": 44.4, "unit": "%"},
      {"measurement": "Rate of contractions of the rat uterine horn's SMP during 5 minutes", "setting": "rat uterine horn's SMP; [2]", "result": 5},
      {"measurement": "SMP contracture after the slowed contractions", "setting": "rat uterine horn's SMP; pre-incubation conditions", "result": "complete blockade"},
      {"measurement": "Inhibition of contractions of the rat uterine horn's SMP, %", "setting": "rat uterine horn's SMP; pre-incubation for 15 minutes", "result": 55.6, "unit": "%"},
      {"measurement": "Rate of contractions of the rat uterine horn's SMP during 5 minutes", "setting": "rat uterine horn's SMP; pre-incubation for 15 minutes", "result": 4}
    ]}
  ]
}
